# ChEMBL document CHEMBL3885881, “DrugMatrix”
# Species on record: Rattus norvegicus
# Assay: DrugMatrix - Regimen: Daily Repeat
# Type: toxicity, organism-based, Sprague-Dawley
# Design: regimen Daily Repeat, gender Male, age 6-8 weeks
# Details: in vivo, po, route oral GAVAGE, […]; for SODIUM / TOTAL BILIRUBIN / TOTAL PROTEIN / URIC ACID / ALANINE AMINOTRANSFERASE / ALBUMIN / ALKALINE PHOSPHATASE / ASPARTATE AMINOTRANSFERASE / BLOOD UREA NITROGEN / CARBON DIOXIDE / CHLORIDE / CHOLESTEROL / CREATINE PHOSPHOKINASE / CREATININE / GLUCOSE / LACTATE DEHYDROGENASE / LIPASE / PHOSPHORUS / POTASSIUM: tissue Plasma; for ABSOLUTE BASOPHIL / ABSOLUTE EOSINOPHIL / ABSOLUTE LYMPHOCYTE / ABSOLUTE MONOCYTE / ABSOLUTE SEGMENTED NEUTROPHIL / BASOPHIL / EOSINOPHIL / ERYTHROCYTE COUNT / HEMATOCRIT / HEMOGLOBIN / LEUKOCYTE COUNT / LYMPHOCYTE / MEAN CORPUSCULAR HEMOGLOBIN / MEAN CORPUSCULAR HEMOGLOBIN CONCENTRATION / MEAN CORPUSCULAR VOLUME / MONOCYTE / NEUTROPHIL / NUCLEATED RED BLOOD CELLS / PLATELET COUNT: tissue Blood
# [1] = 12 mg/kg, 72 h, dose level M1, time 3 day
# [2] = 12 mg/kg, 120 h, dose level M1, time 5 day
# [3] = 75 mg/kg, 72 h, dose level M2, time 3 day
# [4] = 75 mg/kg, 120 h, dose level M2, time 5 day
structure (smiles),measurement,setting,value
C#C[C@]1(O)CC[C@H]2[C@@H]3CCC4=CC(=O)CC[C@@H]4[C@H]3CC[C@@]21C [NORETHINDRONE],SODIUM,[1],144.57 MEQ/L
same,TOTAL BILIRUBIN,[1],0.1 mg/dL
same,TOTAL PROTEIN,[1],6.07 G/DL
same,URIC ACID,[1],1 mg/dL
same,ABSOLUTE BASOPHIL,[2],0 CELLS/uL
same,ABSOLUTE EOSINOPHIL,[2],35 CELLS/uL
same,ABSOLUTE LYMPHOCYTE,[2],6197.67 CELLS/uL
same,ABSOLUTE MONOCYTE,[2],151.67 CELLS/uL
same,ABSOLUTE SEGMENTED NEUTROPHIL,[2],315.67 CELLS/uL
same,BASOPHIL,[2],0%
same,EOSINOPHIL,[2],0.67%
same,ERYTHROCYTE COUNT,[2],6.19 x10E6/uL
same,HEMATOCRIT,[2],37.27%
same,HEMOGLOBIN,[2],14.27 G/DL
same,LEUKOCYTE COUNT,[2],6.7 x10E3/uL
same,LYMPHOCYTE,[2],92.67%
same,MEAN CORPUSCULAR HEMOGLOBIN,[2],23.1 pg
same,MEAN CORPUSCULAR HEMOGLOBIN CONCENTRATION,[2],38.3 G/DL
same,MEAN CORPUSCULAR VOLUME,[2],60.33 fL
same,MONOCYTE,[2],2%
same,NEUTROPHIL,[2],4.67%
same,NUCLEATED RED BLOOD CELLS,[2],0 /100WBC
same,PLATELET COUNT,[2],1179.67 x10E3/uL
same,ALANINE AMINOTRANSFERASE,[2],68.33 u/L
same,ALBUMIN,[2],4.67 G/DL
same,ALKALINE PHOSPHATASE,[2],474.33 u/L
same,ASPARTATE AMINOTRANSFERASE,[2],95.67 u/L
same,BLOOD UREA NITROGEN,[2],10 mg/dL
same,CARBON DIOXIDE,[2],25.67 mmol/L
same,CHLORIDE,[2],106.67 MEQ/L
same,CHOLESTEROL,[2],26 mg/dL
same,CREATINE PHOSPHOKINASE,[2],277.33 u/L
same,CREATININE,[2],0.25 mg/dL
same,GLUCOSE,[2],177.33 mg/dL
same,LACTATE DEHYDROGENASE,[2],205 u/L
same,LIPASE,[2],8 u/L
same,PHOSPHORUS,[2],12.13 mg/dL
same,POTASSIUM,[2],5.86 MEQ/L
same,SODIUM,[2],149.4 MEQ/L
same,TOTAL BILIRUBIN,[2],0.1 mg/dL
same,TOTAL PROTEIN,[2],6.73 G/DL
same,URIC ACID,[2],1.83 mg/dL
same,ABSOLUTE BASOPHIL,[3],0 CELLS/uL
same,ABSOLUTE EOSINOPHIL,[3],0 CELLS/uL
same,ABSOLUTE LYMPHOCYTE,[3],4761.67 CELLS/uL
same,ABSOLUTE MONOCYTE,[3],38.67 CELLS/uL
same,ABSOLUTE SEGMENTED NEUTROPHIL,[3],433 CELLS/uL
same,BASOPHIL,[3],0%
same,EOSINOPHIL,[3],0%
same,ERYTHROCYTE COUNT,[3],5.41 x10E6/uL
same,HEMATOCRIT,[3],33.4%
same,HEMOGLOBIN,[3],12.87 G/DL
same,LEUKOCYTE COUNT,[3],5.23 x10E3/uL
same,LYMPHOCYTE,[3],91%
same,MEAN CORPUSCULAR HEMOGLOBIN,[3],23.77 pg
same,MEAN CORPUSCULAR HEMOGLOBIN CONCENTRATION,[3],38.53 G/DL
same,MEAN CORPUSCULAR VOLUME,[3],61.77 fL
same,MONOCYTE,[3],0.67%
same,NEUTROPHIL,[3],8.33%
same,NUCLEATED RED BLOOD CELLS,[3],0 /100WBC
same,PLATELET COUNT,[3],1166.67 x10E3/uL
same,ALANINE AMINOTRANSFERASE,[3],57 u/L
same,ALBUMIN,[3],4.57 G/DL
same,ALKALINE PHOSPHATASE,[3],692 u/L
same,ASPARTATE AMINOTRANSFERASE,[3],76.67 u/L
same,BLOOD UREA NITROGEN,[3],7.67 mg/dL
same,CARBON DIOXIDE,[3],30.67 mmol/L
same,CHLORIDE,[3],104 MEQ/L
same,CHOLESTEROL,[3],29 mg/dL
same,CREATINE PHOSPHOKINASE,[3],225 u/L
same,CREATININE,[3],0.14 mg/dL
same,GLUCOSE,[3],135.67 mg/dL
same,LACTATE DEHYDROGENASE,[3],89 u/L
same,LIPASE,[3],8 u/L
same,PHOSPHORUS,[3],10.6 mg/dL
same,POTASSIUM,[3],5.59 MEQ/L
same,SODIUM,[3],145.07 MEQ/L
same,TOTAL BILIRUBIN,[3],0.17 mg/dL
same,TOTAL PROTEIN,[3],6.37 G/DL
same,URIC ACID,[3],0.63 mg/dL
same,ABSOLUTE BASOPHIL,[4],0 CELLS/uL
same,ABSOLUTE EOSINOPHIL,[4],0 CELLS/uL
same,ABSOLUTE LYMPHOCYTE,[4],9250.67 CELLS/uL
same,ABSOLUTE MONOCYTE,[4],86 CELLS/uL
same,ABSOLUTE SEGMENTED NEUTROPHIL,[4],330 CELLS/uL
same,BASOPHIL,[4],0%
same,EOSINOPHIL,[4],0%
same,ERYTHROCYTE COUNT,[4],6.52 x10E6/uL
same,HEMATOCRIT,[4],38.67%
same,HEMOGLOBIN,[4],14.53 G/DL
same,LEUKOCYTE COUNT,[4],9.67 x10E3/uL
same,LYMPHOCYTE,[4],95.33%
same,MEAN CORPUSCULAR HEMOGLOBIN,[4],22.3 pg
same,MEAN CORPUSCULAR HEMOGLOBIN CONCENTRATION,[4],37.6 G/DL
same,MEAN CORPUSCULAR VOLUME,[4],59.27 fL
same,MONOCYTE,[4],1%
same,NEUTROPHIL,[4],3.67%
same,NUCLEATED RED BLOOD CELLS,[4],0 /100WBC
same,PLATELET COUNT,[4],928.67 x10E3/uL
same,ALANINE AMINOTRANSFERASE,[4],49 u/L
same,ALBUMIN,[4],5 G/DL
same,ALKALINE PHOSPHATASE,[4],440.33 u/L
same,ASPARTATE AMINOTRANSFERASE,[4],68.33 u/L
same,BLOOD UREA NITROGEN,[4],7 mg/dL
same,CARBON DIOXIDE,[4],27 mmol/L
same,CHLORIDE,[4],104.33 MEQ/L
same,CHOLESTEROL,[4],35 mg/dL
same,CREATINE PHOSPHOKINASE,[4],233.67 u/L
same,CREATININE,[4],0.18 mg/dL
same,GLUCOSE,[4],155.67 mg/dL
same,LACTATE DEHYDROGENASE,[4],123.33 u/L
same,LIPASE,[4],7.33 u/L
same,PHOSPHORUS,[4],11 mg/dL
same,POTASSIUM,[4],5.7 MEQ/L
same,SODIUM,[4],147.73 MEQ/L
same,TOTAL BILIRUBIN,[4],0.13 mg/dL
same,TOTAL PROTEIN,[4],7.03 G/DL
same,URIC ACID,[4],1.5 mg/dL
